Test results reported in patent publication US20210318318A1, “Kinase Activity In Tumors” (Institute For Cancer Research d/b/a The Research Institute …, priority 2018, published 2021).

Legend:
COV362 = experiment: Short-term growth assay (CellTiter-Glo cell viability), kinase inhibitors; type: cell-based, human
Description: (§1) Cell viability was determined by Cell Titer Glo analysis.
COV362 cells were treated with increasing concentrations of A-674563 and cell viability assessed by Cell Titer Glo according to manufacturer's instructions. Data represent the mean of six replicates.
(§2) To explore the therapeutic potential of the HGSOC kinome signature, a detailed molecular analysis of protein levels/activity, growth and survival functions was carried out in a panel of recently validated HGSOC cell lines (Coscia et al., Nat. Commun., 2016, 7, 12645) that harbor commonly encountered HGSOC mutations and genetic rearrangements (see, FIG. 5A).
(§3) For short-term growth assays, 3000-5000 cells were plated per well in 96-well plates and allowed to adhere and equilibrate overnight. Drug was added the following morning and after 120 hours of drug treatment, cell viability was assessed using the CellTiter-Glo Luminescent cell viability assay according to manufacturer (Promega). Students t tests were performed for statistical analyses and p values ≤0.05 were considered significant. For colony formation assays, cells were plated in 24-well dishes (3000-5000 cells per well) and incubated overnight before continuous drug treatment for 14 days, with drug and media replaced twice weekly. At the end of treatment, cells were rinsed with PBS and fixed with chilled methanol for 10 minutes at −20° C. Methanol was removed by aspiration, and cells were stained with 0.5% crystal violet in 20% methanol for 20 minutes at room temperature, washed with distilled water, and scanned.

Kuramochi = experiment: as above; type: cell-based, human
Description: as §1, §2, §3

OVCAR4 = experiment: as above; type: cell-based, human
Description: as §1, §2, §3

OVSAHO = experiment: as above; type: cell-based, human
Description: as §1, §2, §3

SNU-119 = experiment: as above; type: cell-based, human
Description: as §1, §2, §3

MRCKB = target: T1, MRCKB (Homo sapiens, UniProt Q9Y5S2); experiment: MIB/MS kinome profiling of inhibitor-treated OVSAHO cells; type: cell-based; settings: 2 μM, 4 hour treatment
T1 construct: endogenous in cells; host or cells: OVSAHO
T1 sequence (Q9Y5S2 whole entry): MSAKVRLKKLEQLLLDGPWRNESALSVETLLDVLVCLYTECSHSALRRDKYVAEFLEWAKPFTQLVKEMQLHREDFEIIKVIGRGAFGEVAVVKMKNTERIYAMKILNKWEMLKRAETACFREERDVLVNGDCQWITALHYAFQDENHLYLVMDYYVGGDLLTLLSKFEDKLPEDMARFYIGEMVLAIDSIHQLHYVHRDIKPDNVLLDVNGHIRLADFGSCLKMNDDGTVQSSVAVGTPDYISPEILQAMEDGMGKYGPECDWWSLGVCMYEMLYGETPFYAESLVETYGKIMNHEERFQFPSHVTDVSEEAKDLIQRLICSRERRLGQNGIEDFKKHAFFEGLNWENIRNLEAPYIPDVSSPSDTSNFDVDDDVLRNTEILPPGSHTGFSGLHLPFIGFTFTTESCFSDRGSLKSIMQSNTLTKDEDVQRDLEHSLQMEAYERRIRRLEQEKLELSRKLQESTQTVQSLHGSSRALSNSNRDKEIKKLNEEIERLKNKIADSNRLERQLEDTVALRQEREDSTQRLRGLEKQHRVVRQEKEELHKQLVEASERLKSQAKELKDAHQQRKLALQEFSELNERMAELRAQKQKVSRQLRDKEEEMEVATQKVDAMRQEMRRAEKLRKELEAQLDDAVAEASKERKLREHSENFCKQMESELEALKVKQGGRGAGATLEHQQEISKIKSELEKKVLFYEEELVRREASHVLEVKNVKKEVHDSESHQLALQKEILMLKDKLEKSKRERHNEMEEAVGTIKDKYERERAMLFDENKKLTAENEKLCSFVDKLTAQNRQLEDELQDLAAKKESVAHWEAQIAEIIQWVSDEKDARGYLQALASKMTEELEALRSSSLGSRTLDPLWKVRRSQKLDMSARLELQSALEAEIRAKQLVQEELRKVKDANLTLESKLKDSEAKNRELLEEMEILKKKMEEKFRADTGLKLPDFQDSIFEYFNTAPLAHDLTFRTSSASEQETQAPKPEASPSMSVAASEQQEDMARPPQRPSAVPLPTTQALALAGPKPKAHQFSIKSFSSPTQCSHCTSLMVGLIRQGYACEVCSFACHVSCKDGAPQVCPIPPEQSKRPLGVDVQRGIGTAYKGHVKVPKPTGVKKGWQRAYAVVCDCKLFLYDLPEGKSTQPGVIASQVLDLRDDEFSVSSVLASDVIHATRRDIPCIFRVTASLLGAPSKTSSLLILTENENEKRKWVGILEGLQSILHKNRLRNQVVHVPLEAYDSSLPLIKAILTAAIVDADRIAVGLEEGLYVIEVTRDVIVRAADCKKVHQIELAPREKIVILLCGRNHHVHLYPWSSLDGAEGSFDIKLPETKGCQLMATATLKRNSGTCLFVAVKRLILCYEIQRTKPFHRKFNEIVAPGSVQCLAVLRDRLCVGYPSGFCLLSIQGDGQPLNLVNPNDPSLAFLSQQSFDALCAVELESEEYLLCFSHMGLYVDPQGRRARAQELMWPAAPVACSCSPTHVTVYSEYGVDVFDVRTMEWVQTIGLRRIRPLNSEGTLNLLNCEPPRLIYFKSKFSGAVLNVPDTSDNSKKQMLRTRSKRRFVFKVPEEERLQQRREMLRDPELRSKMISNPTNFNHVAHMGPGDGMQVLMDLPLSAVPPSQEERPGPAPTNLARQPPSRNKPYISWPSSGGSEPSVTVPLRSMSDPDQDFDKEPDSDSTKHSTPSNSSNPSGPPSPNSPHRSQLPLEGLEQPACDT
Description: (§4) OVSAHO cells were treated with inhibitors at a dose of 2 μM for 4 hours and kinase inhibition profiles determined by MIB/MS. Bar graph depicts % of kinase bound to MIBs relative to DMSO control as determined by label free quantitation.
(§5) OVSAHO cells were treated with 2 μM of inhibitor for 4 hours and analyzed by MIB/MS. Scatterplot depicts difference in kinase MIB-binding of drug treated relative to control DMSO as determined by Students T-test.
(§6) MIB-based kinome profiling was performed on several of these molecules in HGSOC cells to determine kinome-wide inhibition profiles.
(§7) Experiments using MIB/MS were performed as previously described (Duncan et al., Cell, 2012, 149, 307-321; and Kurimchak et al., Cell Reports, 2016, 16, 1273-1286). Briefly, cells or tumors were lysed on ice in buffer containing 50 mM HEPES (pH 7.5), 0.5% Triton X-100, 150 mM NaCl, 1 mM EDTA, 1 mM EGTA, 10 mM sodium fluoride, 2.5 mM sodium orthovanadate, 1× protease inhibitor cocktail (Roche), and 1% each of phosphatase inhibitor cocktails 2 and 3 (Sigma). Particulate was removed by centrifugation of lysates at 13,000 rpm for 10 minutes at 4° C. and filtration through 0.2 μm syringe filters. Protein concentrations were determined by BCA analysis (Thermo). To compare kinome signatures within and across such large sample sizes, a super-SILAC method was designed (Neubert et al., Nat. Meth., 2010, 7, 361-362) consisting of a cocktail of cancer cell lines that encompasses the activity of the “cancer kinome” to be used as a control for individual samples. Five cancer cell lines were selected from the NCI-60 panel (UACC257, MOLT4, COL0205, ACHN and PC3) that differed in their origin, gene expression patterns and mutation status. The cancer cell lines were labeled using SILAC and mixed equally providing a diverse SILAC ([^13C6,^15N4] arginine (Arg^10) and […] (Lys^8)) heavy kinome reference standard (HKS) to be used repeatedly in kinome profiling assays. An equal amount of the HKS was added to the non-labeled sample (cell, tumor or normal tissue) providing a quantitative strategy to compare kinome activity/levels across samples, amongst treatments and, importantly, across time. […]
(§8) Proteolytic peptides were resuspended in 0.1% formic acid and separated with a Thermo RSLC Ultimate 3000 on a Thermo Easy-Spray C18 PepMap 75 μm×50 cm C-18 2 μm column with a 240 minute gradient of 4-25% acetonitrile with 0.1% formic acid at 300 nL/min and 50° C. Eluted peptides were analyzed by a Thermo Q Exactive plus mass spectrometer utilizing a top 15 methodology in which the 15 most intense peptide precursor ions were subjected to fragmentation.

MRCKA = MRCKA (Homo sapiens, UniProt Q5VT25); experiment: as above; type: cell-based; parameters: endogenous in cells; host or cells: OVSAHO; settings: 2 μM, 4 hour treatment
MRCKA, sequence (Q5VT25 whole entry): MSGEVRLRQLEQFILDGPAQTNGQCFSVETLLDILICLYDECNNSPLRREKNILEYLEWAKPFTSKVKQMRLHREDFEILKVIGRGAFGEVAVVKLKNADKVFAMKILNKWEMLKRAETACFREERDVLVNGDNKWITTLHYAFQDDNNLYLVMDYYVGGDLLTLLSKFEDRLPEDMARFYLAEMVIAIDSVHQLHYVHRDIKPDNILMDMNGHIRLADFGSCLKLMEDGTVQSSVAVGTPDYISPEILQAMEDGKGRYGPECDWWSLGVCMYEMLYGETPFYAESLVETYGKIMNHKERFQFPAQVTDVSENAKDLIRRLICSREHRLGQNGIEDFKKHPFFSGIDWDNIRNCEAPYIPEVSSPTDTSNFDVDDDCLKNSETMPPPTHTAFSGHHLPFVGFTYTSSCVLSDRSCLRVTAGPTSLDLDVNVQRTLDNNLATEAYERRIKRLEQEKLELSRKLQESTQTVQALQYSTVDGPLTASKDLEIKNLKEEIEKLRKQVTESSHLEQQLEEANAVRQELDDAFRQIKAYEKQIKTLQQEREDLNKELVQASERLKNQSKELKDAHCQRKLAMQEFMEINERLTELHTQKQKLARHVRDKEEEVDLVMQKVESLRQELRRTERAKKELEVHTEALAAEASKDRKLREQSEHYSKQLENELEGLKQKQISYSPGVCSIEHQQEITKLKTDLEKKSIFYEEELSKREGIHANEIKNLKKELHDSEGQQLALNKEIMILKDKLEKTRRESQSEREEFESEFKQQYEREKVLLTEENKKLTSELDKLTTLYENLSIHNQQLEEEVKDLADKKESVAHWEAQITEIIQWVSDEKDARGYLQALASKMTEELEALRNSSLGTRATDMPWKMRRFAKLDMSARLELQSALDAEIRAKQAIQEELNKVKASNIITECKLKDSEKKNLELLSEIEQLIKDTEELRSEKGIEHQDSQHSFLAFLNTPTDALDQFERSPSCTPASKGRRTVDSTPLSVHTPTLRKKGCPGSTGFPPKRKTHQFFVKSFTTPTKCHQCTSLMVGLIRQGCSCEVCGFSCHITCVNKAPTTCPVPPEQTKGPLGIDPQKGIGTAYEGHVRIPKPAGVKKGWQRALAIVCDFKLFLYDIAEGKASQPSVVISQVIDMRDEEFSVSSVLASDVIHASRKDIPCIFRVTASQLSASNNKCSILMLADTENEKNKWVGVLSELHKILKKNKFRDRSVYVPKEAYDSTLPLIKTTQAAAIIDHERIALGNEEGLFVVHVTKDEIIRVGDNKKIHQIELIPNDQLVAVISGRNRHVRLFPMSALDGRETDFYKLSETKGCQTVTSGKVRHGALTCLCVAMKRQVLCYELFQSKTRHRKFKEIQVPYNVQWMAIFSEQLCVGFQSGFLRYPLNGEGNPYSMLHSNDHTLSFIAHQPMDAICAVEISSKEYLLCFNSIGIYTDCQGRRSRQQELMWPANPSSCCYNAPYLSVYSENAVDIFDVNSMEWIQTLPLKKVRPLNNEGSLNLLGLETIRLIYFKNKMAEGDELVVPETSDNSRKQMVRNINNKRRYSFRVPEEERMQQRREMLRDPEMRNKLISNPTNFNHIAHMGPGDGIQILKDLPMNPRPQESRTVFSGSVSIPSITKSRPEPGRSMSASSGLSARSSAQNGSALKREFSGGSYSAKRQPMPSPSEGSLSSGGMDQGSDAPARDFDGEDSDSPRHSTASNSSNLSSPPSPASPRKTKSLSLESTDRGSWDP
Description: as §4, §5, §6, §7, §8

OVCAR4 cells = experiment: Drug growth inhibition in cells depleted of dark kinases by siRNA (Cell Titer Glo); type: cell-based, human; settings: increasing doses of drug
Description: OVCAR4 cells were transfected with control nontargeting or dark kinase siRNAs and treated with escalating doses of appropriate drugs.
(§9) To explore if blocking dark kinases AAK1, STK38 or MRCKA activity in combination with current therapies improves drug efficacy, OVCAR4 cells depleted of AAK1, STK38 or MRCKA were treated with increasing doses of carboplatin, olaparib, JQ1, or a variety of kinase inhibitors in clinical trials for HGSOC.
(§10) siRNA transfections were performed using 25 nM siRNA duplex and the reverse transfection protocol. 3000-5000 cells per well were added to 96 well plates with media containing the siRNA and transfection reagent (Lipofectamine RNAiMax) according to the manufacturer's instructions. In experiments where inhibitors were used, the inhibitor was added at the time of transfection. Cells were allowed to grow for 72-120 hours post-transfection prior to CellTiter Glo (Promega) analysis. Two-to-three independent experiments were performed with each cell line and siRNA. Students t tests were performed for statistical analyses and p values ≤0.05 were considered significant. For western blot studies, the same procedure was performed with volumes and cell numbers proportionally scaled to a 60 mm or 10 cm dish, and cells were collected 24-72 hours post-transfection. siRNA product numbers and manufacturers are listed in Table 5.

HGSOC cells [1] = experiment: Cell viability of HGSOC cell line panel (Cell Titer Glo); type: cell-based, human; settings: increasing concentrations; Cell Titer Glo
Description: Cells were treated with increasing concentrations of PF-03758309 and cell viability assessed by Cell Titer Glo according to manufacturer's instructions. Data represent the mean of six replicates.
Cell viability was assessed by Cell Titer Glo according to manufacturing. Data represent the mean of six replicates.
as §3

ROCK2 = target: T2, ROCK2 (Homo sapiens, UniProt O75116); experiment: MIB/MS kinome profiling of inhibitor-treated OVSAHO cells; type: cell-based; settings: 2 μM, 4 hours
T2 construct: endogenous in cells; host or cells: OVSAHO
T2 sequence (O75116 whole entry): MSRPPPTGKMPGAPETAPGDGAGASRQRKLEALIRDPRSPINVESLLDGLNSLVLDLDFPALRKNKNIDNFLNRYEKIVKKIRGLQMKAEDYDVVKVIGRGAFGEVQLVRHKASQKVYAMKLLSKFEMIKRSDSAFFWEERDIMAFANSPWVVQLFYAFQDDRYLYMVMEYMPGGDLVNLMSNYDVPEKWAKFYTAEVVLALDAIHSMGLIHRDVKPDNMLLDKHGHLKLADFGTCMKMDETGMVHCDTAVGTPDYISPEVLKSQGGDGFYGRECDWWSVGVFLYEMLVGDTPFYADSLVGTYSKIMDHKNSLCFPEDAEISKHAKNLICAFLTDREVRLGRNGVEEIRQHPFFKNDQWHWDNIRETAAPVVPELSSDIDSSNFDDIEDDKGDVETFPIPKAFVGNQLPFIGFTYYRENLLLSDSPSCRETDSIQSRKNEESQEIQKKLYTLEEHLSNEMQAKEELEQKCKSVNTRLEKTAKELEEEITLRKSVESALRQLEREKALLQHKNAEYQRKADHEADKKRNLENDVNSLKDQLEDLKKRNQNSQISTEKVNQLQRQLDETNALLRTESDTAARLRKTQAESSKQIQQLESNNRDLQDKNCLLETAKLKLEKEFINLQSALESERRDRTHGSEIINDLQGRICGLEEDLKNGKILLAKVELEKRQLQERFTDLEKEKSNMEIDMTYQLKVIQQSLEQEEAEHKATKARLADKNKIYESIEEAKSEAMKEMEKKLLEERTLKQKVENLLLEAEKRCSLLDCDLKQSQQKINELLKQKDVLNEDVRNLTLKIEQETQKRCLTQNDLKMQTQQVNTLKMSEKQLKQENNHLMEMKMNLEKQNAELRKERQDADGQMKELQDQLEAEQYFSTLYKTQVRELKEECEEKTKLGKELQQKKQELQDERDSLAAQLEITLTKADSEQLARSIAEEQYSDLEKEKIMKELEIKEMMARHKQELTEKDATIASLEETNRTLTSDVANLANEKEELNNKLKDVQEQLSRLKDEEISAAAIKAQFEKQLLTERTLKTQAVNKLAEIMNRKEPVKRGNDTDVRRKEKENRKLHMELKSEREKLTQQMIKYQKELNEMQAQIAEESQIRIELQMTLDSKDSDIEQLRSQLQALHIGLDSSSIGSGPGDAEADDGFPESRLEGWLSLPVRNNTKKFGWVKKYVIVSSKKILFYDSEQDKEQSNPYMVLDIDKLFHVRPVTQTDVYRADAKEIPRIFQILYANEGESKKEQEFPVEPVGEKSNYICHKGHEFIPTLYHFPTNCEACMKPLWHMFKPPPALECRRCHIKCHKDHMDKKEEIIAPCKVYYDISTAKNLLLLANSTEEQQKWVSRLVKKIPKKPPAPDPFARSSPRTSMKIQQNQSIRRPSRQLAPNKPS
Description: as §5, §6
Experiments using MIB/MS were performed as previously described (Duncan et al., Cell, 2012, 149, 307-321; and Kurimchak et al., Cell Reports, 2016, 16, 1273-1286). Briefly, cells or tumors were lysed on ice in buffer containing 50 mM HEPES (pH 7.5), 0.5% Triton X-100, 150 mM NaCl, 1 mM EDTA, 1 mM EGTA, 10 mM sodium fluoride, 2.5 mM sodium orthovanadate, 1× protease inhibitor cocktail (Roche), and 1% each of phosphatase inhibitor cocktails 2 and 3 (Sigma). Particulate was removed by centrifugation of lysates at 13,000 rpm for 10 minutes at 4° C. and filtration through 0.2 μm syringe filters. Protein concentrations were determined by BCA analysis (Thermo). To compare kinome signatures within and across such large sample sizes, a super-SILAC method was designed (Neubert et al., Nat. Meth., 2010, 7, 361-362) consisting of a cocktail of cancer cell lines that encompasses the activity of the “cancer kinome” to be used as a control for individual samples. […] An equal amount of the HKS was added to the non-labeled sample (cell, tumor or normal tissue) providing a quantitative strategy to compare kinome activity/levels across samples, amongst treatments and, importantly, across time. […]
as §8

[2] = test system: FAK1, MLC and Paxillin phosphorylation; FAK1 and CHEK1 protein levels; experiment: Western blot of signaling in inhibitor-treated HGSOC cells; type: cell-based, human; settings: HGSOC (COV362) cells, increasing doses 0.5, 1 or 3 μM, 48 hours
Description: COV362 cells were treated with 0.5, 1 or 3 μM of A-674563 or SB-772077 for 48 hours and signaling monitored by western blot.
Samples were harvested in MIB lysis buffer, subjected to SDS-PAGE […] and transferred to PVDF membranes before western blotting with primary antibodies. For pMYPT and pMLC blots, cells were harvested in a buffer containing 1% (w/v) SDS, 50 mM Tris pH 7.5 supplemented with protease and phosphatase inhibitors buffer and were passed through QIAshredder columns (Qiagen, 79654), (Unbekandt et al., Cell Commun. Signal., 2014, 12, 54). For the list of primary antibodies used, see Table 4. Secondary HRP-anti-rabbit and HRP-anti-mouse were obtained from ThermoFisher Scientific. SuperSignal West Pico and Femto Chemiluminescent Substrates (Thermo) were used to visualize blots.

HGSOC cells [3] = experiment: Drug response in cells depleted of MRCKA by siRNA (Cell Titer Glo, cleaved PARP blots); type: cell-based, human; settings: HGSOC cells; increasing doses
Description: Cells transfected with control or MRKCA siRNAs were treated with increasing doses of carboplatin. Cell viability was assessed by Cell Titer Glo according to manufacturer's instructions. Data represent the mean of six replicates. GR50 were determined using PRISM.
Cells transfected with control or MRKCA siRNAs were treated with increasing doses of olaparib. Cell viability was assessed by Cell Titer Glo according to manufacturer's instructions. Data represent the mean of six replicates. GR50 were determined using PRISM.
as §9, §10

## CS(=O)(=O)CCNCc1ccc(-c2ccc3ncnc(Nc4ccc(OCc5cccc(F)c5)c(Cl)c4)c3c2)o1 [Lapatinib]
COV362; drug 1.2 uM
  Kinase inhibition profile of HGSOC cells (growth inhibition, Cell Titer Glo): 0.9973
Kuramochi; drug 1.2 uM
  Kinase inhibition profile of HGSOC cells (growth inhibition, Cell Titer Glo): 0.9704
OVCAR4; drug 1.2 uM
  Kinase inhibition profile of HGSOC cells (growth inhibition, Cell Titer Glo): 0.974
OVSAHO; drug 1.2 uM
  Kinase inhibition profile of HGSOC cells (growth inhibition, Cell Titer Glo): 1.053
SNU-119; drug 1.2 uM
  Kinase inhibition profile of HGSOC cells (growth inhibition, Cell Titer Glo): 0.15
MRCKB
  MIB-binding of MRCKB relative to DMSO: no effect
MRCKA
  MIB-binding of MRCKA relative to DMSO: no effect

## C=CCn1c(=O)c2cnc(Nc3ccc(N4CCN(C)CC4)cc3)nc2n1-c1cccc(C(C)(C)O)n1 [MK-1775]
COV362; drug 0.312 uM
  Kinase inhibition profile of HGSOC cells (growth inhibition, Cell Titer Glo): 0.03494
Kuramochi; drug 0.312 uM
  Kinase inhibition profile of HGSOC cells (growth inhibition, Cell Titer Glo): 1.111
OVCAR4; drug 0.312 uM
  Kinase inhibition profile of HGSOC cells (growth inhibition, Cell Titer Glo): 0.6747
OVSAHO; drug 0.312 uM
  Kinase inhibition profile of HGSOC cells (growth inhibition, Cell Titer Glo): 0.5935
SNU-119; drug 0.312 uM
  Kinase inhibition profile of HGSOC cells (growth inhibition, Cell Titer Glo): 0.4312
OVCAR4 cells
  growth inhibition by drug with MRCKA knockdown relative to non-targeting control siRNA: enhanced growth inhibition

## Cc1nc(Nc2[nH]nc3c2CN(C(=O)N[C@H](CN(C)C)c2ccccc2)C3(C)C)c2sccc2n1 [PF03758039]
COV362; drug 1.2 uM
  Kinase inhibition profile of HGSOC cells (growth inhibition, Cell Titer Glo): 0.4916
Kuramochi; drug 1.2 uM
  Kinase inhibition profile of HGSOC cells (growth inhibition, Cell Titer Glo): 0.4783
OVCAR4; drug 1.2 uM
  Kinase inhibition profile of HGSOC cells (growth inhibition, Cell Titer Glo): 0.2063
OVSAHO; drug 1.2 uM
  Kinase inhibition profile of HGSOC cells (growth inhibition, Cell Titer Glo): 0.659
SNU-119; drug 1.2 uM
  Kinase inhibition profile of HGSOC cells (growth inhibition, Cell Titer Glo): 0.3505
HGSOC cells [1]
  cell viability of HGSOC cells: reduced cell viability to the greatest extent in OVCAR4 and KURMAOCHI cells

## CNC(=O)c1ccccc1Nc1cc(Nc2ccc(N3CCOCC3)cc2OC)ncc1C(F)(F)F [PND1186]
COV362; drug 1.2 uM
  Kinase inhibition profile of HGSOC cells (growth inhibition, Cell Titer Glo): 0.34
Kuramochi; drug 1.2 uM
  Kinase inhibition profile of HGSOC cells (growth inhibition, Cell Titer Glo): 0.51
OVCAR4; drug 1.2 uM
  Kinase inhibition profile of HGSOC cells (growth inhibition, Cell Titer Glo): 0.51
OVSAHO; drug 1.2 uM
  Kinase inhibition profile of HGSOC cells (growth inhibition, Cell Titer Glo): 0.69
SNU-119; drug 1.2 uM
  Kinase inhibition profile of HGSOC cells (growth inhibition, Cell Titer Glo): 0
HGSOC cells [1]
  cell viability of HGSOC cells: reduced cell viability

## CCn1c(-c2nonc2N)nc2cncc(C(=O)N3CC[C@H](N)C3)c21 [SB-772077-B]
ROCK2
  MIB-binding of ROCK2: reduction in MIB-binding
[2]
  FAK1, MLC and Paxillin phosphorylation: reduced

## Fc1ccc(Cl)cc1-c1nc(Nc2ccncc2)c2nccnc2n1 [SD-208]
MRCKB
  MIB-binding of MRCKB relative to DMSO: no effect
MRCKA
  MIB-binding of MRCKA relative to DMSO: no effect

## CN(C)C/C=C/C(=O)Nc1ccc(C(=O)Nc2cccc(Nc3ncc(Cl)c(-c4c[nH]c5ccccc45)n3)c2)cc1 [THZ1]
COV362; drug 0.156 uM
  Kinase inhibition profile of HGSOC cells (growth inhibition, Cell Titer Glo): 1.026
Kuramochi; drug 0.156 uM
  Kinase inhibition profile of HGSOC cells (growth inhibition, Cell Titer Glo): 0.07069
OVCAR4; drug 0.156 uM
  Kinase inhibition profile of HGSOC cells (growth inhibition, Cell Titer Glo): 0
OVSAHO; drug 0.156 uM
  Kinase inhibition profile of HGSOC cells (growth inhibition, Cell Titer Glo): 0
SNU-119; drug 0.156 uM
  Kinase inhibition profile of HGSOC cells (growth inhibition, Cell Titer Glo): 0
OVCAR4 cells
  growth inhibition by drug combined with knockdown of STK38: improved growth inhibition
  growth inhibition by drug with MRCKA knockdown relative to non-targeting control siRNA: enhanced growth inhibition

## O=C(c1cc(Cc2n[nH]c(=O)c3ccccc23)ccc1F)N1CCN(C(=O)C2CC2)CC1 [olaparib]
OVCAR4 cells
  growth inhibition by drug with MRCKA knockdown relative to non-targeting control siRNA: enhanced growth inhibition
HGSOC cells [3]
  growth inhibitory and apoptotic response to drug with MRCKA knockdown: improved the growth inhibitory and apoptotic response
